Test results taken from patent US11806344B2, “Pharmaceutical composition comprising mineralocorticoid receptor antagonist and use thereof” (priority 2016, dated 2023).
Where two headings read alike, the source gives them in different places.

Assays:
[1] = tested on: patients with diabetic nephrophthy; conditions: cited from earlier work
[2] = Absorption of Compound I of different particle sizes/formulations in male SD rats (Example 3-1); format: in vivo; conditions: intragastric single dose 1.0 mg/kg; for AUCINF: 1 mg/kg; for BA %: absolute bioavailability vs IV 2.0 mg/kg
Method: Compound I with different formulations and/or different D90 values was compared for absorptions in male SD rats.
Samples to test: Compound I was prepared by the method as described in Example 1 of WO2014094664A1, and then pulverized to provide Compound I samples having D90 of 538 nm, 3.8 μm, 21.7 μm, 41.5 μm and 71.6 μm, respectively; immediately before the tests, these samples were suspended in 0.5% MC to obtain 1 mg/mL suspensions.
Solutions: 5% DMSO+95% (solution containing 6% HP-β-CD)
Solid dispersions: Compound I: Polyvinylpyrrolidone K30=1:8 (w/w)
The formulation for intravenous injection was a solution where Compound I was dissolved in 5% DMSO+95% (6% HP-β-CD solution), and SD rats were administered at a dose of 2 mg/kg.

[3] = rat, in vivo, po, 1 mg/kg
Method: Blood collection: The animals were fixed and had their tails warmed in a water bath 10 min prior to blood collection; about 100 μL of blood was collected through the tail vein for each animal and put into an anticoagulation tube containing hepatin; the blood samples were subject to centrifugation at 8000 rpm for 6 min at 4° C. to obtain plasma samples, which had to be obtained within 30 minutes after blood was collected; the plasma samples were stored in a freezer at −80° C. for future tests.
Sample analysis: 50 μL of each plasma sample from the freezer was transferred to a centrifugal tube; 100 μL of water and 400 μL of MTBE standard solution (50 ng/mL) were added into the tube and well mixed with the plasma; the obtained mixture was mixed for 10 minutes using a vortex mixer and then subject to centrifugation for 5 minutes (12000 r/min); 300 μL of the supernatant was transferred to another centrifugal tube and blown dry with nitrogen gas; the resultant substance was dissolved in 200 μL of a solution consisting of methanol and water at a ratio of 1:1, of which 20 μL was used for the LC-MS/MS measurement.
Data processing: the compound concentration was output by Analyst 1.6.1 (AB Sciex); the means, standard deviations, and variation coefficients were calculated using Microsoft Excel (no calculation needed if these parameters were directed output by Analyst 1.6.1), and pharmacokinetic parameters were determined using the NCA analysis object in Pharsight Phoenix 6.3.

[4] = Absorption of Compound I D90 5 μm suspension in Beagle dogs (Example 3-2); format: in vivo; conditions: intragastric single dose 0.5 mg/kg, suspension in 0.5% MC
Method: Sample to test: Compound I having D90 of 5 μm was suspended in 0.5% MC immediately before tests, to prepare 0.25 mg/mL suspension.
Animals: Three Beagle Dogs.
(1) All animals fasted for 12 h or longer before drug administration, and food was supplied 4 h after drug administration, with ad libitum access to water all the time. […] The collected blood was stored in a dry tube with heparin (normal saline containing 0.1% heparin sodium). (2) Plasma preparation: The whole blood samples collected in step (1) were subject to centrifugation at a low speed (8000 r/min, 6 min, 4° C.) to separate the plasma (the whole blood was stored in a mobile freezer at about 0 to 4° C., and plasma had to be separated within 30 minutes after the blood collection), and the plasma was kept in dark in a freezer at −70° C. (or lower) for future analysis.

Molecule: CCOc1ncc(C)c2c1[C@H](c1ccc(C#N)cc1OC)C(C(N)=O)=C(C)N2 [Finerenone]
- UACR reduced ([1]; Finerenone 7.5 mg/day): 21%
- incidence of discontinuation due to onset of hyperkalemia ([1]; Finerenone 7.5 mg/day): 2.1%
- UACR reduced ([1]; Finerenone 10 mg/day): 24%
- incidence of discontinuation due to onset of hyperkalemia ([1]; Finerenone 10 mg/day): 0%
- UACR reduced ([1]; Finerenone 15 mg/day): 33%
- incidence of discontinuation due to onset of hyperkalemia ([1]; Finerenone 15 mg/day): 3.2%
- UACR reduced ([1]; Finerenone 20 mg/day): 38%
- incidence of discontinuation due to onset of hyperkalemia ([1]; Finerenone 20 mg/day): 1.7%

Molecule: N#Cc1ccc(N2N=C3c4ccc(C(=O)N5CCC(O)CC5)nc4CC[C@@H]3[C@@H]2C2CCCC2)cc1Cl [Compound I with D90 of 3.8 μm]
- AUCINF [2]: 1045 ng·h/mL
- BA % [2]: 66.9%

Molecule: Polysorbate 80
- AUCINF [3]: 654 ng·h/mL

Molecule: Hydroxypropyl cellulose
- AUCINF [3]: 535 ng·h/mL

Molecule: Polyoxyl(40) stearate
- AUCINF [3]: 427 ng·h/mL

Molecule: hydroxypropyl-β-cyclodextrin
- AUCINF [3]: 350 ng·h/mL

Molecule: N#Cc1ccc(N2N=C3c4ccc(C(=O)N5CCC(O)CC5)nc4CC[C@@H]3[C@@H]2C2CCCC2)cc1Cl [Compound I with D90 of 41.5 μm]
- AUCINF [2]: 545 ng·h/mL
- BA % [2]: 34.8%

Molecule: Poloxamer 188
- AUCINF [3]: 712 ng·h/mL

Molecule: Hydroxypropyl methyl cellulose
- AUCINF [3]: 483 ng·h/mL

Molecule: Polyethylene glycol 400
- AUCINF [3]: 613 ng·h/mL

Molecule: N#Cc1ccc(N2N=C3c4ccc(C(=O)N5CCC(O)CC5)nc4CC[C@@H]3[C@@H]2C2CCCC2)cc1Cl [Compound I having D90 of 5 μm]
- AUC(0-inf) ([4]; dog, plasma, po): 506 ng·h/mL
- BA % [4]: 57.4%

Molecule: Polyvinyl alcohol
- AUCINF [3]: 603 ng·h/mL

Molecule: N#Cc1ccc(N2N=C3c4ccc(C(=O)N5CCC(O)CC5)nc4CC[C@@H]3[C@@H]2C2CCCC2)cc1Cl [Compound I with D90 of 72.0 μm]
- AUCINF [2]: 207 ng·h/mL
- BA % [2]: 13.2%
- BA % ([2]; listed as Compound I with D90 of 72.2 μm): 13.2%

Molecule: N#Cc1ccc(N2N=C3c4ccc(C(=O)N5CCC(O)CC5)nc4CC[C@@H]3[C@@H]2C2CCCC2)cc1Cl [Compound I with D90 of 21.7 μm]
- AUCINF [2]: 854 ng·h/mL
- BA % [2]: 54.6%

Molecule: Carbomer
- AUCINF [3]: 289 ng·h/mL

Molecule: N#Cc1ccc(N2N=C3c4ccc(C(=O)N5CCC(O)CC5)nc4CC[C@@H]3[C@@H]2C2CCCC2)cc1Cl [Compound I with D90 of 538 nm]
- AUCINF [2]: 1287 ng·h/mL
- BA % [2]: 82.3%
